Assay results published in article PMC12775434, “Ultra-large virtual screening unveils potent agonists of the neuromodulatory orphan receptor GPR139” (Nature Communications, 2025).
Where “and” joins values, the source holds several entries; their conditions need not be identical. Identical values can stand only once. Like-named read-outs stand apart in the source and are kept apart here.

Key:
Format in all cases: cell-based
[1] = biological target: T1, GPR139 (Homo sapiens, UniProt Q6DWJ6); test: Ca2+ mobilization assay, agonist mode, stable GPR139-CHOk1 cell line; conditions: for Emax: normalized to Lundbeck Cmp 1a, read-out: Emax (%) Ca2+
T1 sequence (Q6DWJ6 1-353): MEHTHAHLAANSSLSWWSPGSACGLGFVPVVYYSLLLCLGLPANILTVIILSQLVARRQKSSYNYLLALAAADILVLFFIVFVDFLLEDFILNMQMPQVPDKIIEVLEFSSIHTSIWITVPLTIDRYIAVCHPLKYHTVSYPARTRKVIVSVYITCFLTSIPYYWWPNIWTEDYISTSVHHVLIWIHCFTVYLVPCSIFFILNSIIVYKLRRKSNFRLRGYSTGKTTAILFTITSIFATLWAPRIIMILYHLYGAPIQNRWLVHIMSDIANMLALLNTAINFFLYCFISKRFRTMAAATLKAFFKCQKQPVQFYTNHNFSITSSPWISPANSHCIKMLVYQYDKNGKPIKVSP
In short: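 Agonist activity of compounds is assessed in stably transfected CHO-K1 cells using the calcium dye Fluo-4 at 37 °C in HEPES-buffered HBSS (pH 7.4). Efficacy is expressed relative to the reference agonist Lundbeck Cmp 1a, set as 100%.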

[2] = biological target: T1, GPR139; test: Ca2+ mobilization assay, antagonist mode (EC80 800 nM Lundbeck Cmp 1a after 20 min preincubation), GPR139-CHOk1; conditions: individual replicates (Supplementary Figure 4)
In short: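 Fluo-4-loaded GPR139-CHOk1 cells in HEPES-buffered HBSS (pH 7.4, 2.5 mM probenecid) given test compounds at 10 µM, then after 20 min challenged with 800 nM Lundbeck Cmp 1a (EC80). Calcium fluorescence read at 37 °C, 485/525 nm.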

[3] = biological target: T2, human muscarinic acetylcholine M1 receptor (M1R) (Homo sapiens, UniProt P11229); test: Ca2+ mobilization counter-screen in M1R-CHOk1 cells; conditions: individual replicates (Supplementary Figure 5)
T2 sequence (P11229 1-460): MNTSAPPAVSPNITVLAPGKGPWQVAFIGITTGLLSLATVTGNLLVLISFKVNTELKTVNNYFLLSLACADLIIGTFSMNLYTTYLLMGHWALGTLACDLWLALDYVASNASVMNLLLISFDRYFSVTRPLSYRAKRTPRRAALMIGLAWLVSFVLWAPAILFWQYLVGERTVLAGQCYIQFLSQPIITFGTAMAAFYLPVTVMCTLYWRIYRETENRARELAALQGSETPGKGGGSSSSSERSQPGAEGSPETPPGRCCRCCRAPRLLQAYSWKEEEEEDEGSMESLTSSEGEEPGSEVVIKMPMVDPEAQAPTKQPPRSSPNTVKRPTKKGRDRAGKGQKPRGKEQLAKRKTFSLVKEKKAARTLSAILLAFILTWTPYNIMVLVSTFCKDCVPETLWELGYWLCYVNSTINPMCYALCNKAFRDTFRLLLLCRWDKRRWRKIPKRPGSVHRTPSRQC
Experimental: Primary screening and pharmacological characterization of compounds were performed using a CHO-K1 cell line that stably expresses human GPR139 (GPR139-CHOk1). The GPR139-CHOk1 cell line was kindly provided by H. Lundbeck A/S, Denmark[24]. GPR139-CHOk1 cells were grown in Ham’s F-12 Kaighn’s Modification Medium (ThermoFisher #21127030) supplemented with 10% dialyzed fetal bovine serum (US origin, ThermoFisher #26400044), 100 units/mL Penicillin-Streptomycin (ThermoFisher #15140122), and 1 mg/mL Geneticin (ThermoFisher #11811031). […] M1R-CHOk1 cells were purchased from The Missouri S&T cDNA Resource Center (#CEM100TN00). M1R-CHOk1 cells were grown in Ham’s F12 Medium (ThermoFisher #21765029) supplemented with 10% fetal bovine serum (Brazilian origin, ThermoFisher #10270106), 100 units/mL Penicillin-Streptomycin, and 0.25 mg/mL Geneticin. HEK293A cells transiently transfected with GPR139 were used for additional pharmacological assessment of signaling pathways activated by GPR139. HEK239A cells were generously provided by Dr. Asuka Inoue, Tohoku University, Japan. HEK293A cells were grown in Dulbecco’s Modified Eagle Medium (ThermoFisher #31966047) supplemented with 10% dialyzed fetal bovine serum and 100 units/mL Penicillin-Streptomycin. Cell lines were maintained at 37 °C in humidified incubator equilibrated with 5% CO2.
30,000 GPR139- or M1R-CHOk1 cells/well were seeded in black clear bottom tissue culture treated 96-well plates (Greiner #655090) and grown for 20–24 h. Cells were washed with HEPES buffer (Hank’s Balanced Salt Solution (HBBS) supplemented with 20 mM HEPES, 1 mM MgCl2, and 1 mM CaCl2; pH 7.4). Cells were loaded with 50 µL of 2 µM Fluo-4 AM dye (ThermoFisher #F14202) in HEPES buffer supplemented with 2.5 mM probenecid and 0.01% Pluronic F-68 (ThermoFisher #24040032) for 1 h at 37 °C. Cells were washed with HEPES buffer. 50 µL HEPES buffer supplemented with 2.5 mM probenecid was added, and the cells were incubated for 10 min at 37 °C before measurement. 50 µL test compounds diluted in HEPES buffer from DMSO stocks (final DMSO concentration of maximally 0.3%) were added automatically after baseline measurements. The intracellular calcium mobilization was measured on a FlexStation 3 Multimode Microplate Reader (Molecular Devices) at 37 °C with filters for excitation of 485 nm and emission of 525 nm.

[4] = Agonist mode, individual replicates (Supplementary Figure 4)
[5] = GPR139-CHOk1, read-out: EC50, Ca2+ mobilization
[6] = Supplementary Table 2, mean ± SEM
[7] = log [Compound] M = -4.5, individual replicate columns
[8] = log [Compound] M = -5.0, individual replicate columns
[9] = log [Compound] M = -5.5, individual replicate columns
[10] = log [Compound] M = -6.0, individual replicate columns
[11] = log [Compound] M = -6.5, individual replicate columns
[12] = log [Compound] M = -7.0, individual replicate columns
[13] = log [Compound] M = -7.5, individual replicate columns
[14] = log [Compound] M = -8.0, individual replicate columns
[15] = log [Compound] M = -8.5, individual replicate columns
[16] = log [Compound] M = -9.0, individual replicate columns
[17] = Supplementary Table 2, mean ± SEM, read-out: pEC50 Ca2+ (converted)

Structure (SMILES)	Ca2+ signal (% of Cmp 1a) [1, 4]	EC50 [1, 5] [nM]	Emax [1, 6] [%]	Ca2+ signal (% of Cmp 1a) [1, 7]	Ca2+ signal (% of Cmp 1a) [1, 8]	Ca2+ signal (% of Cmp 1a) [1, 9]	Ca2+ signal (% of Cmp 1a) [1, 10]	Ca2+ signal (% of Cmp 1a) [1, 11]	Ca2+ signal (% of Cmp 1a) [1, 12]	Ca2+ signal (% of Cmp 1a) [1, 13]	Ca2+ signal (% of Cmp 1a) [1, 14]	Ca2+ signal (% of Cmp 1a) [1, 15]	Ca2+ signal (% of Cmp 1a) [1, 16]	Ca2+ signal (% of Cmp 1a) [2]	Ca2+ signal (% of Carbachol) [3]	EC50 [1, 17] [nM]
CC(NC(=O)Cc1noc(-c2cccs2)n1)c1ccccc1 (stereo not drawn) [Compound 1.8, CC(C1=CC=CC=C1)NC(CC2=NOC(C3=CC=CS3)=N2)=O]	85 % of Cmp 1a and 73 % of Cmp 1a and 70 % of Cmp 1a	200	107 ± 2	109 % of Cmp 1a and 116 % of Cmp 1a and 101 % of Cmp 1a	111 % of Cmp 1a and 105 % of Cmp 1a and 96 % of Cmp 1a	93 % of Cmp 1a and 94 % of Cmp 1a and 84 % of Cmp 1a	85 % of Cmp 1a and 82 % of Cmp 1a and 75 % of Cmp 1a	69 % of Cmp 1a and 70 % of Cmp 1a and 47 % of Cmp 1a	38 % of Cmp 1a and 47 % of Cmp 1a and 20 % of Cmp 1a	0.333 % of Cmp 1a and 13 % of Cmp 1a and 7 % of Cmp 1a	-16 % of Cmp 1a and -13 % of Cmp 1a and 1.67 % of Cmp 1a	-16 % of Cmp 1a and 4.67 % of Cmp 1a and -5.33 % of Cmp 1a	-11 % of Cmp 1a and -5.67 % of Cmp 1a and -13 % of Cmp 1a	-5.67 % of Cmp 1a and 1.33 % of Cmp 1a and -13 % of Cmp 1a	5 % of Carbachol and -12 % of Carbachol and 8 % of Carbachol	
Cc1ccc(-c2nc(CC(=O)NC(C)c3ccccc3)no2)s1 (stereo not drawn) [Compound 1.9, CC(C1=CC=CC=C1)NC(CC2=NOC(C3=CC=C(S3)C)=N2)=O]	88 % of Cmp 1a and 93 % of Cmp 1a and 63 % of Cmp 1a		86 ± 8	76 % of Cmp 1a and 96 % of Cmp 1a and 87 % of Cmp 1a and 68 % of Cmp 1a	86 % of Cmp 1a and 100 % of Cmp 1a and 93 % of Cmp 1a and 70 % of Cmp 1a	70 % of Cmp 1a and 105 % of Cmp 1a and 84 % of Cmp 1a and 64 % of Cmp 1a	66 % of Cmp 1a and 73 % of Cmp 1a and 71 % of Cmp 1a and 65 % of Cmp 1a	37 % of Cmp 1a and 55 % of Cmp 1a and 47 % of Cmp 1a and 52 % of Cmp 1a	12 % of Cmp 1a and 23 % of Cmp 1a and 28 % of Cmp 1a and 35 % of Cmp 1a	2.33 % of Cmp 1a and 12 % of Cmp 1a and 15 % of Cmp 1a and 9 % of Cmp 1a	-1.67 % of Cmp 1a (2×) and -4 % of Cmp 1a and 0 % of Cmp 1a	-4.67 % of Cmp 1a and -2 % of Cmp 1a (2×) and 2 % of Cmp 1a	-5 % of Cmp 1a and 7 % of Cmp 1a and -15 % of Cmp 1a and -4.33 % of Cmp 1a	1.67 % of Cmp 1a and 13 % of Cmp 1a	-5 % of Carbachol and 6 % of Carbachol	200
COc1cccc(-c2nc(CC(=O)NC(C)c3ccccc3)no2)c1 (stereo not drawn) [Compound 1.10, COC1=CC(C2=NC(CC(NC(C3=CC=CC=C3)C)=O)=NO2)=CC=C1]	119 % of Cmp 1a and 102 % of Cmp 1a and 114 % of Cmp 1a	200	111 ± 5	112 % of Cmp 1a and 110 % of Cmp 1a and 101 % of Cmp 1a	114 % of Cmp 1a (2×) and 92 % of Cmp 1a	118 % of Cmp 1a and 113 % of Cmp 1a and 104 % of Cmp 1a	92 % of Cmp 1a and 83 % of Cmp 1a and 79 % of Cmp 1a	70 % of Cmp 1a and 58 % of Cmp 1a and 60 % of Cmp 1a	51 % of Cmp 1a and 30 % of Cmp 1a and 40 % of Cmp 1a	20 % of Cmp 1a and 5.67 % of Cmp 1a and 19 % of Cmp 1a	10 % of Cmp 1a and -8 % of Cmp 1a and 0.333 % of Cmp 1a	11 % of Cmp 1a and -17 % of Cmp 1a and 4 % of Cmp 1a	16 % of Cmp 1a and -3 % of Cmp 1a and 6.33 % of Cmp 1a	0.667 % of Cmp 1a and -2.67 % of Cmp 1a and -13 % of Cmp 1a	12 % of Carbachol and -9 % of Carbachol and 13 % of Carbachol	
Cc1csc(-c2nc(CC(=O)NC(C)c3ccccc3)no2)c1 (stereo not drawn) [Compound 1.11, CC(C1=CC=CC=C1)NC(CC2=NOC(C3=CC(C)=CS3)=N2)=O]	83 % of Cmp 1a and 63 % of Cmp 1a and 71 % of Cmp 1a		105 ± 10	119 % of Cmp 1a and 103 % of Cmp 1a and 72 % of Cmp 1a and 99 % of Cmp 1a	117 % of Cmp 1a and 110 % of Cmp 1a and 94 % of Cmp 1a and 97 % of Cmp 1a	109 % of Cmp 1a and 87 % of Cmp 1a and 67 % of Cmp 1a and 96 % of Cmp 1a	94 % of Cmp 1a and 70 % of Cmp 1a and 59 % of Cmp 1a and 79 % of Cmp 1a	69 % of Cmp 1a and 58 % of Cmp 1a and 32 % of Cmp 1a and 65 % of Cmp 1a	58 % of Cmp 1a and 48 % of Cmp 1a and 20 % of Cmp 1a and 43 % of Cmp 1a	38 % of Cmp 1a and -18 % of Cmp 1a and -19 % of Cmp 1a and 30 % of Cmp 1a	31 % of Cmp 1a and 1.33 % of Cmp 1a and -4 % of Cmp 1a and 6.33 % of Cmp 1a	6 % of Cmp 1a and 1.67 % of Cmp 1a and 4.67 % of Cmp 1a and 3.33 % of Cmp 1a	10 % of Cmp 1a and 7 % of Cmp 1a and -2.67 % of Cmp 1a and 1.33 % of Cmp 1a	0 % of Cmp 1a and -3 % of Cmp 1a and -25 % of Cmp 1a	-8 % of Carbachol and 27 % of Carbachol and -10 % of Carbachol	200
